# Reference: patent US20250161338A1, “Compounds for Anti-aging Intervention” (AGENCY FOR SCIENCE, TECHNOLOGY AND RESEARCH, priority 2022, published 2025)
# How the values were obtained:
# [1] = test system: prototrophic yeast strain (CEN.PK113-7D); test: Yeast outgrowth in YPD liquid medium (CLS of aged cells); assay type: cell-based, Saccharomyces cerevisiae
# Outline: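 Cultures aged at 30 °C in SD medium with double-diluted rapamycin (0–10 nM) or sugars/polyols (0–8 mM). On day 14, 3 µL of culture was transferred into 200 µL YPD and outgrowth read as OD600. Survival expressed relative to day 1 outgrowth (100%).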
# [2] = test system: CEN.PK113-7D snflΔ deletion strain; test: Growth sensitivity of SNFl gene deletion strain; assay type: cell-based, Saccharomyces cerevisiae; conditions: different concentrations; compared to wild-type strain
# From the text: The prototrophic wild-type Saccharomyces cerevisiae CEN.PK113-7D yeast strain genetic background (Euroscarf, Köhlerweg, Oberursel, Germany), and the Saccharomyces cerevisiae BY4743 strain (Euroscarf, Köhlerweg, Oberursel, Germany) were used. The CEN.PK113-7D snflΔ deletion strain was constructed. The standard rich Yeast-Extract Peptone Dextrose (YPD) medium (1% w/v Bacto yeast extract, 2% w/v Bacto peptone, and 2% w/v glucose) (BD, Franklin Lakes, New Jersey, United States of America), YPD agar (2.5% w/v Bacto agar) (BD, Franklin Lakes, New Jersey, United States of America), and synthetic defined (SD) medium (BD, Franklin Lakes, New Jersey, United States of America) used here contained 6.7 g/L Difco™ Yeast Nitrogen Base (without amino acids and with ammonium sulfate) (BD, Franklin Lakes, New Jersey, United States) and 2% w/v glucose. Rapamycin (Enzo Life Sciences, Farmingdale, New York, United States) stock solution was prepared in dimethyl sulfoxide (DMSO) (Sigma-Aldrich, St. Louis, Missouri, United States of America). […]
# [3] = test system: HEK293 cell line; test: CLS in human cells using crystal violet outgrowth assay; assay type: cell-based; conditions: Day 4 culture (FIG. 18A); seven days of outgrowth
# Description: Human embryonic kidney 293 (HEK293) cells (ATCC, Manassas, Virginia, United States of America), lung epithelial (A549) cells (ATCC, Manassas, Virginia, United States of America) and fibroblast (IMR90) cells (ATCC, Manassas, Virginia, United States of America) were cultured in the standard D10 medium, consisting of high-glucose DMEM (HyClone, Cytiva, Marlborough, Massachusetts, USA) supplemented with 10% Fetal Bovine Serum (FBS) (Gibco™, ThermoFisher Scientific, Waltham, Massachusetts, USA) and 1% Penicillin Streptomycin Solution (Gibco™, ThermoFisher Scientific, Waltham, Massachusetts, USA). All cells were cultured in a humidified incubator with 5% CO2 at 37° C.
# 80,000 cells were seeded in a 96-well culture plate with or without compound treatment. On Day 4, Day 6, and Day 8 after seeding, floating dead cells were aspirated with exhausted D10 medium. Then, attached cells were gently washed with 1×PBS to remove D10 medium residue and treated with 0.2 mL of 0.25% trypsin. Cells were gently mixed by pipetting and a 2% aliquot (4 μL) was transferred to 6-well experiment plates with fresh D10 medium. […]
# In this approach, an outgrowth assay was used to determine the number of live cells in the 6-well experiment plate using crystal violet staining. […] These live cells were then stained with crystal violet dye and assessed qualitatively.
compound,measurement,setting,value
"OC[C@H]1O[C@H](CO)[C@@H](O)[C@@H]1O [2,5-AM, 2,5-anhydro-D-mannitol]",antiaging activity in outgrowth assays,"[1]; Day 1, 4, 7 and 10, FIGS. 6 to 8",verified by outgrowth assays
same,Outgrowth,"[1]; concentration tested 300 μg/mL, OD600 nm after 24 h in YPD, age point day 14",1.3
same,growth of snflΔ deletion strain,[2],inhibited the growth of snflΔ deletion strain compared to wild-type strain
same,"cellular lifespan (crystal violet, qualitative)",[3],able to increase cellular lifespan
